One experiment has as its target T1, human topoisomerase II (Homo sapiens, UniProt P11388).
T1 construct: purchased TopoGEN, Inc
Briefly: Decatenation assay (catenated to decatenated KDNA). Conditions: drug concentration that inhibits 50% of conversion of catenated to decatenated KDNA; read-out: topoisomerase II inhibition IC50. The experiment is classed as biochemical. Here is the method:
Kinetoplast DNA (KDNA), human topoisomerase II (170 KDa form), and DNA Unwinding Kit including supercoiled pHOT1 DNA, relaxed DNA marker, buffers, and human topoisomerase I were purchased from TopoGEN, Inc. Agarose was purchased from Fisher. Quinobenzoxazine A-62176 (S-enantiomer) was provided by Abbott Laboratories or prepared by published procedure (Chu and Maleczka, Jr., 1987).
0.25 μg of KDNA was incubated with various concentrations of the quinobenzoxazines in a 20-μl reaction mixture containing 50 mM Tris-HCl (pH 8), 120 mM KCl, 10 mM MgCl2, and 0.5 mM each of ATP, dithiothreitol, and […] BSA for 10 min. Two units of human topoisomerase II (170 KDa form) were added to the mixture, which was then incubated at 37° C. for 30 min. The reaction was terminated with 0.1 volume of stop buffer (5% sarkosyl, 0.025% bromophenol blue, and 50% glycerol). The decatenation products were analyzed on 1% agarose gels run with 0.5 μg/ml ethidium bromide. The gels were scanned by FluoroImager and analyzed by ImageQuaNT software (Molecular Dynamics).

A further experiment concerns supercoiled pHOT1 DNA. The experiment can be described thus: DNA unwinding assay. The experiment is classed as biochemical. The following applies: concentration shifting topoisomers to the middle position between relaxed and supercoiled bands. Here is the method:
A 22 μl mixture of 0.25 μg of supercoiled pHOT1 DNA, 5 units of topoisomerase I in topoisomerase I buffer (provided with the kit) was incubated at 37° C. for 30 min. Two μl of various concentrations of drug was added, and the incubation was continued for another 30 min. The reactions were terminated by addition of SDS to 1%. Proteinase K was added to the reaction mixtures to ca. 50 μg/ml, and the reaction mixtures were incubated for 15-20 min at 56° C. After adding 0.1 volume of 10×gel loading buffer, the reaction mixtures were extracted with an equal volume of CIA (Chloroform:isoamyl Alcohol; 24:1). The samples were loaded on an 1% agarous gel that was cast in TPE buffer (36 mM Tris-HCl, pH 7.8, 1 mM EDTA, 30 mM NaH2PO4) and 0.2 μg/ml Chloroquine. The gel was run in TPE buffer at room temperature at 10 volts for 20 h, destained in water for 15 min, stained in 0.05 μg/ml ethidium bromide for 15 min, and destained again in water for 15 min. The gel was then photographed, scanned by FluoroImager, and analyzed by ImageQuaNT software (Molecular Dynamics).

For a further experiment, the system named is B16 melanoma. The experiment can be described thus: Cancer cell growth inhibition assay (MTT). It counts as cell-based, murine. How it is done:
(§1) Exponentially growing cells in 0.1 ml medium were seeded on Day 0 in 96-well microtiter plates. On Day 1, 0.1-ml aliquots of medium containing graded concentrations test agent were added in duplicate to the cell plates. After incubation at 37° C. in a humidified incubator, the plates were centrifuged briefly (1-2 min at 1000 rpm), and 100 μl of the growth medium was removed. Cell cultures were incubated with 50 μl of 3-(4,5-dimethylthiazyl-2-yl)-2,5-diphenyltetrazolium bromide MTT, 1 mg/ml in Dubecco's PBS for 4 h at 37° C. The resulting purple formazan precipitate was solubilized with 200 μl of 0.4 N HCl in isopropyl alcohol. Absorbance was quantitated using a Bio-Rad Model 3550 microplate reader at a test wavelength of 570 nm and a reference wavelength of 630 nm. Absorbance values were transferred to a 486 personal computer, and the IC50 values were determined using the computer program EZ-ED50 (Chen et al., 1993).

The subject of the next experiment is DU-145 prostate. The experiment can be described thus: Cancer cell growth inhibition assay (MTT). It counts as cell-based, human. How it is done: as §1
The subject of the next experiment is H226 non-small-cell lung. Briefly: Cancer cell growth inhibition assay (MTT). The experiment is classed as cell-based, human. Here is the method:
as §1

In the next experiment the test system is HT-29 colon. Briefly: Cancer cell growth inhibition assay (MTT). It counts as cell-based, human. How it is done:
as §1

In another experiment the test system is MDA-231 breast. The experiment can be described thus: Cancer cell growth inhibition assay (MTT). It counts as cell-based, human. Here is the method:
as §1

The test system of a further experiment is Raji lymphoma. Briefly: Cancer cell growth inhibition assay (MTT). It counts as cell-based, human. Here is the method:
as §1

Experiment [1] relates to G-quadruplex structure formed on the HT4 template. The experiment can be described thus: DNA synthesis arrest assay (Taq polymerase primer extension). It counts as biochemical. The following applies: 55° C. Here is the method: FIG. 12A and FIG. 12B. Compound 2b (see FIG. 3) concentration-dependent block of Taq polymerase DNA synthesis by the G-quadruplex structure formed on the HT4 template at 55° C. (A) Autoradiogram of a sequencing gel showing enhanced DNA synthesis pausing at the G-quadruplex site with increasing concentrations of 2b. Arrows indicate the positions of the full length product of DNA synthesis, the G-quadruplex pausing site, and the free primer. (B) Quantitation of the gel using ImageQuaNT software.
This assay is similar to that described by Han and co-workers (Han et al., 1999). Briefly, primers (24 nM) labeled with [γ-^32P] were mixed with template DNA (12 nM)) in a Tris-HCl buffer (10 mM Tris, pH 8.0) containing K^+ (50 mM for the HT4 template) and denatured by heating at 90° C. for 5 min. After cooling down to room temperature, 2b was added at various concentrations and incubated at room temperature for 15 min. The primer extension reactions were initiated by adding dNTP (final concentration 100 μM), MgCl2 (final concentration […]), and Taq DNA polymerase (2.5 U/reaction, Boehringer Mannheim). The products were separated on a 12% polyacrylamide sequencing gel. The gels were then dried and visualized on a PhosphorImager (Molecular Dynamics model 445 S1). […]

Another experiment deals with human telomerase. The experiment can be described thus: Telomerase inhibition assay (HeLa cell extract). The experiment is classed as biochemical. How it is done:
The assay used crude HeLa cell extract as the source of human telomerase. It measures the incorporation of ^32P-labeled dGTP into the primer extension of human telomere synthesis (Sun et al., 1998). […] Specific examples of such dual-acting compounds include compounds 2b and 2a (FIG. 3).
The assay was performed by using 5′-end biotinylated d[TTAGGG]3 as the telomere primer. Reaction mixtures (20 μl) containing 5 μl cell lysate (S-100), 50 mM Tris-OAc (pH 8.5), 50 mM K-OAc, 1 mM MgCl2, 5 mM BME, 1 mM spermidine, 1 μM telomere primer, 1.5 μM [α-^32P]-dGTP (800 Ci/mmol), 1 mM dATP, and 1 mM dTTP were incubated at 37° C. for 1 hr, and the reactions were terminated by adding 20 μl of […] streptavidin-coated Dynabeads suspension containing 10 mM Tris-HCl (pH 7.5), 1 mM EDTA, 2M KCl, and a 500 cpm biotinylated internal control. Streptavidin-coated Dynabeads bind selectively to the desired target (5′-biotinylated primer), forming a magnetic bead-targeted complex. The complex was separated from the suspension using a Dynal MPC magnet and washed several times with 2×SSC buffer containing 0.1% SDS to eliminate [α-^32P]-dGTP background. Telomerase reaction products were separated from the magnetic beads by protein denaturation with 5.7 M guanidine-HCl at 90° C. for 30 min. After ethanol precipitation, products were resolved on denaturating 10% polyacrylamide gel.

The subject of another experiment is sea urchin embryo system. Briefly: Sea urchin embryo system.

Entries after “also recorded” stand apart in the source; their conditions may differ.

T1 sequence (P11388 whole entry): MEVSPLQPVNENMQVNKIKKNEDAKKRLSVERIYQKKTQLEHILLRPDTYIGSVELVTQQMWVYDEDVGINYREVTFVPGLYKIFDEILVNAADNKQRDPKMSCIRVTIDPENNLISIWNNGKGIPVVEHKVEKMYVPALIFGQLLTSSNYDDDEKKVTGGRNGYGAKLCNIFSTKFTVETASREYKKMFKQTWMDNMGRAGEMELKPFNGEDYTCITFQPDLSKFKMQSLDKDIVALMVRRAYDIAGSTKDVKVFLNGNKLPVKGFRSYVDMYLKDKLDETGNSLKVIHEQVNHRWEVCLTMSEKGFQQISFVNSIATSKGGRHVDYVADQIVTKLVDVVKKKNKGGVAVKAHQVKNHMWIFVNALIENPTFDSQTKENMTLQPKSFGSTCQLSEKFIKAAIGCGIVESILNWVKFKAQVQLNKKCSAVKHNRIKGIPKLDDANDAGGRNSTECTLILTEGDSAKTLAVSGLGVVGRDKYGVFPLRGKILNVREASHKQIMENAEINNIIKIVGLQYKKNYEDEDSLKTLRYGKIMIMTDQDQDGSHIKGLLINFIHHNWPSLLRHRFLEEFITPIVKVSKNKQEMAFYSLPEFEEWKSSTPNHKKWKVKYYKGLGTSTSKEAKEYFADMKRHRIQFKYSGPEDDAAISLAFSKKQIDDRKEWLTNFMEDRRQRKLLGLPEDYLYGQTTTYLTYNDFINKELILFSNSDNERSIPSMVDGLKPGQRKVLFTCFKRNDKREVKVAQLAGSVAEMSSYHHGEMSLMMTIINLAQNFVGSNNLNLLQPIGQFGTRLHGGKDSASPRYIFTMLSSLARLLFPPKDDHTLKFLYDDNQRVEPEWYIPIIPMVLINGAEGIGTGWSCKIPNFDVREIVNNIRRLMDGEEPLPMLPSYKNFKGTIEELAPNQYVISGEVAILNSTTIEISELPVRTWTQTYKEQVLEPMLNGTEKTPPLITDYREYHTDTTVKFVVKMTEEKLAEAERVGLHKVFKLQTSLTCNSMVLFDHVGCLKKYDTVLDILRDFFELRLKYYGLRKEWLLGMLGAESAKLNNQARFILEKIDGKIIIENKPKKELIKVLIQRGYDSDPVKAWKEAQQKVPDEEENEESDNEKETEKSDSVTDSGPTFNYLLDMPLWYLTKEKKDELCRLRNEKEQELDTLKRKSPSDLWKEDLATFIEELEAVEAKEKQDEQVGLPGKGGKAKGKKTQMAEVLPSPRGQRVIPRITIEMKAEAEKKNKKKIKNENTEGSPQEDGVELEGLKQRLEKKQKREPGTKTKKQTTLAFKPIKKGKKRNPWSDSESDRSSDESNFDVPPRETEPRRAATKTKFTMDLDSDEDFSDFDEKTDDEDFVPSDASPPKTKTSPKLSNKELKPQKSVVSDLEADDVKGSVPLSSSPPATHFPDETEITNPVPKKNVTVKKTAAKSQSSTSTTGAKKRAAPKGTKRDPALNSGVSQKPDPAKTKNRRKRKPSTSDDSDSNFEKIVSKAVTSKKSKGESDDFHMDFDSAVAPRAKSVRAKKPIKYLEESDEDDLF

As usually defined, the IC50 is the concentration needed to halve the response being measured. `Cl.NC1CCN(c2c(F)cc3c(=O)c(C(=O)O)cn4c3c2Oc2c-4ccc3ccccc23)C1` (stereo not drawn) [Compound 2b, 1-(3-Aminopyrrolidin-1-yl)-2-fluoro-4-oxo-4H-pyrido[3,2,1-k,l]-benzo[f]-phenoxazine-5-carboxylic Acid]: the IC50 on human topoisomerase II is 240 nM; with B16 melanoma, 20 ± 2 nM; with DU-145 prostate, 30 ± 10 nM; with H226 non-small-cell lung, 13 ± 5 nM; in the experiment with HT-29 colon, 26 ± 1 nM; with MDA-231 breast it was 5 ± 1 nM. The same molecule yielded an IC50 with Raji lymphoma of 34 ± 2 nM. Besides, the DNA unwinding concn in the experiment with supercoiled pHOT1 DNA was found to be 3 µM. Further, the “primer extension by Taq DNA polymerase” value in experiment [1] (100 μM) was “completely inhibited”. In experiment [1] (increasing concentration), the “polymerase pausing at the G-quadruplex site” value is listed as “enhanced pausing”. In addition, in the experiment on human telomerase, the “telomerase inhibition (qualitative)” value is on record as “dual-acting; also recorded: inhibit telomerase”. Besides, the chromosomal aberrations entry in the experiment on sea urchin embryo system is “cause chromosomal aberrations”.

Values taken from patent publication US6528517B1, “Synthesis of quinobenzoxazine analogues with topoisomerase II and quadruplex interactions for use as antineoplastic agents” (Board of Regents, The University of Texas System, priority 1998, dated 2003).
